Data published in ChEMBL document CHEMBL1127008, “Synthesis of myo-inositol 1,2,4,5-tetrakisphosphate, a Ca2+-mobilising tetrakisphosphate with a potency similar to myo-inositol 1,4,5-trisphosphate” (Bioorg Med Chem Lett, 1993).

Legend:
[1] = Compound was evaluated for its ability to mobilize calcium in 1321NI cells; format: functional, cell-based
Homo sapiens [2] = organism: Homo sapiens; assay: Compound was evaluated for the inhibition of [3H]- Ins(1,4,5)P3 dephosphorylation by human erythrocyte membrane Ins(1,4,5)P3 5-phosphatase; format: functional
[3] = biological target: Inositol 1,4,5-trisphosphate-gated calcium channel ITPR3 (Bos taurus, UniProt Q8WN95); assay: Compound was evaluated for its ability to displace [3H]Ins(1,4,5)P3 from membranes prepared from bovine adrenal corticles
Inositol 1,4,5-trisphosphate-gated calcium channel ITPR3, sequence (Q8WN95 whole entry): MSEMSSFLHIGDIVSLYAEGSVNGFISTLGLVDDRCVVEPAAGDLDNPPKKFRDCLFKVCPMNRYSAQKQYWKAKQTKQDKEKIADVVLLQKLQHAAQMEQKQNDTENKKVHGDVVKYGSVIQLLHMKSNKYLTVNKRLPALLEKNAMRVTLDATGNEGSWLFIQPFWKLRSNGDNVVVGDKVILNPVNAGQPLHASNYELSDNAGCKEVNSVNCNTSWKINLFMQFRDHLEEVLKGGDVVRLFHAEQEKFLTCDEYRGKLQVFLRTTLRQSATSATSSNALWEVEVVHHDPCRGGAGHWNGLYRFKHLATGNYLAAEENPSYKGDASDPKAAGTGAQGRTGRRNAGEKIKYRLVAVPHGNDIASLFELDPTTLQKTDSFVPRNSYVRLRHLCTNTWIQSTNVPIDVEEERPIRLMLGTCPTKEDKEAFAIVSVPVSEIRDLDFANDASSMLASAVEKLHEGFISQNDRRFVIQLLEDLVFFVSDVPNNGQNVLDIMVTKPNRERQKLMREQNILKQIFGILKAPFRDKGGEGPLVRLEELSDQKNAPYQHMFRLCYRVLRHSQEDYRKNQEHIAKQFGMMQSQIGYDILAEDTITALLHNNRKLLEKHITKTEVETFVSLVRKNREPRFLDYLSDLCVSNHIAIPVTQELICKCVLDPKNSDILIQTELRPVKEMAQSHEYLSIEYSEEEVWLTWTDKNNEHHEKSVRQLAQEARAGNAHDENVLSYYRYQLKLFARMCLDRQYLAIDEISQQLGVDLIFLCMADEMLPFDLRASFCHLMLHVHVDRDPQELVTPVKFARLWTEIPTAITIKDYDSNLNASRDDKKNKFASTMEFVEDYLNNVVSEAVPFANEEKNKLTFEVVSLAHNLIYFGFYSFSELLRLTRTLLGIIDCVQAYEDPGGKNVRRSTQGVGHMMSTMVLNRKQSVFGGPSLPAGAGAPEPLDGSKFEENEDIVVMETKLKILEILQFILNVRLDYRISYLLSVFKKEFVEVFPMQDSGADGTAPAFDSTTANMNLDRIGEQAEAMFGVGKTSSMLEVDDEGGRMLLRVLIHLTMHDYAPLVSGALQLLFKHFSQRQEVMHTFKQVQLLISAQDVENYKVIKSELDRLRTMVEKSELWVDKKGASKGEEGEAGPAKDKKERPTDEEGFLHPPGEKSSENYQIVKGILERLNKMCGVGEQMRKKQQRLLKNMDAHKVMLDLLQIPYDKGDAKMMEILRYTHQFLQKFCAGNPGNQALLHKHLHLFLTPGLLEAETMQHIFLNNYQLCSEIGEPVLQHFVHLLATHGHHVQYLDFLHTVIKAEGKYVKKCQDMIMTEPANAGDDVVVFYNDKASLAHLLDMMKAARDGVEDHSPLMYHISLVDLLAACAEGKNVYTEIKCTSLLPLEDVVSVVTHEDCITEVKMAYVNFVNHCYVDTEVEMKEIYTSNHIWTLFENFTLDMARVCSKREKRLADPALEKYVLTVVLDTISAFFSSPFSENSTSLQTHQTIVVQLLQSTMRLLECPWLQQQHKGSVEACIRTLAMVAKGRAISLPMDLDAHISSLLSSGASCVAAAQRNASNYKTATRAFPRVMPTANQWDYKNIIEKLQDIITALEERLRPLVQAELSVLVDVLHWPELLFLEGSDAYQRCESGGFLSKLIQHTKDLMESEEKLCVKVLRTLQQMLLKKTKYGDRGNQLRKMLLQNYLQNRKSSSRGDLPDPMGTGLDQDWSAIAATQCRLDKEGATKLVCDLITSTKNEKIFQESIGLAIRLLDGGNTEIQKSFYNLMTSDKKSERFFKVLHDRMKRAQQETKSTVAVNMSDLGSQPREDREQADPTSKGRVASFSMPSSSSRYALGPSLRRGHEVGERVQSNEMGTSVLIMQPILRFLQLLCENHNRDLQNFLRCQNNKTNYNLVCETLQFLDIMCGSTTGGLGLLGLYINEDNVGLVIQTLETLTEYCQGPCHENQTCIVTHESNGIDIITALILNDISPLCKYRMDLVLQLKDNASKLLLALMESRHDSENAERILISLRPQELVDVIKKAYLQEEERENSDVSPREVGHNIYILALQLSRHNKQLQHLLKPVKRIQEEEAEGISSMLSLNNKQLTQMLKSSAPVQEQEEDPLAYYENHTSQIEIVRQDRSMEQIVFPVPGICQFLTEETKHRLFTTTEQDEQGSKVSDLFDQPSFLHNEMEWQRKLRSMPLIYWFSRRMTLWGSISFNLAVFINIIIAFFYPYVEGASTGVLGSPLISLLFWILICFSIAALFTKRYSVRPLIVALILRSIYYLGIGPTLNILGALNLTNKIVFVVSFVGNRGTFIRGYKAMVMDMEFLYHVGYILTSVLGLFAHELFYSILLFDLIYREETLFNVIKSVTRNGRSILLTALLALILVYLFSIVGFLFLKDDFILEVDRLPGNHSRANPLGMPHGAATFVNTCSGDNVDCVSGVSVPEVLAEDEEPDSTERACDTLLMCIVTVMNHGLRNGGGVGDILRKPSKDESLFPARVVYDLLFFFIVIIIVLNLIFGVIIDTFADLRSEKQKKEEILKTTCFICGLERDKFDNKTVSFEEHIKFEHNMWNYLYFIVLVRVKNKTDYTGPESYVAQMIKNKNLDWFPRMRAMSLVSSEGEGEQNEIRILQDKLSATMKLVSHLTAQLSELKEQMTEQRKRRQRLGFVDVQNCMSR

[4] = Inhibition of Ins(1,4,5)P3 phosphorylation by rat brain homogenate; format: functional
[5] = Compound was evaluated for its ability to mobilize calcium from [Ca(2+)]-preloaded SH-SY5Y cells permeabilised using saponin; devoid of [Ca2+] mobilising activity; format: functional, cell-based, Homo sapiens
[6] = Compound was evaluated for its ability to mobilize calcium from [Ca(2+)]-preloaded SH-SY5Y cells permeabilised using saponin; format: functional, cell-based; settings: Homo sapiens
Rattus norvegicus = organism: Rattus norvegicus; assay: Enzyme kinetics constant (Km value) was determined in rat brain homogenate […]; format: functional
Homo sapiens [7] = organism: Homo sapiens; assay: Enzyme kinetics constant (Km value) was determined in human erythrocyte membrane […]; format: functional

Row | Structure (SMILES) | EC50 [1] [µM] | Ki (Homo sapiens [2]) [µM] | Ki [3] [µM] | Ki [4] [µM] | EC50 [5] | EC50 [6] [µM] | Km (Rattus norvegicus) [µM] | Km (Homo sapiens [7]) [µM]
1 | O=C(OC1C(OP(=O)(O)O)C(OP(=O)(O)O)C(OC(=O)c2ccccc2)C(OP(=O)(O)O)C1OP(=O)(O)O)c1ccccc1 (centres undefined) | < 100 | 15.9 | < 3 | 100 | Not Active |  |  | 
2 | O=P(O)(O)O[C@@H]1[C@H](O)[C@H](O)[C@@H](OP(=O)(O)O)[C@H](OP(=O)(O)O)[C@H]1O [INS(1,4,5)P3] |  |  |  |  |  | 0.052 | 1.5 | 31.8
3 | O=P(O)(O)O[C@H]1[C@H](O)[C@@H](OP(=O)(O)O)[C@H](OP(=O)(O)O)[C@@H](OP(=O)(O)O)[C@H]1O |  |  |  |  |  | 2.1 |  | 
